Test results reported in patent US20260374773A1, “MULTI-CYCLIC IRAK AND FLT3 INHIBITING COMPOUNDS AND USES THEREOF” (CHILDREN'S HOSPITAL MEDICAL CENTER, priority 2022, published 2026).

Biological target: T1, FLT3 R834Q (Homo sapiens, UniProt P36888, R834Q)
T1 sequence (P36888 27-993 R834Q): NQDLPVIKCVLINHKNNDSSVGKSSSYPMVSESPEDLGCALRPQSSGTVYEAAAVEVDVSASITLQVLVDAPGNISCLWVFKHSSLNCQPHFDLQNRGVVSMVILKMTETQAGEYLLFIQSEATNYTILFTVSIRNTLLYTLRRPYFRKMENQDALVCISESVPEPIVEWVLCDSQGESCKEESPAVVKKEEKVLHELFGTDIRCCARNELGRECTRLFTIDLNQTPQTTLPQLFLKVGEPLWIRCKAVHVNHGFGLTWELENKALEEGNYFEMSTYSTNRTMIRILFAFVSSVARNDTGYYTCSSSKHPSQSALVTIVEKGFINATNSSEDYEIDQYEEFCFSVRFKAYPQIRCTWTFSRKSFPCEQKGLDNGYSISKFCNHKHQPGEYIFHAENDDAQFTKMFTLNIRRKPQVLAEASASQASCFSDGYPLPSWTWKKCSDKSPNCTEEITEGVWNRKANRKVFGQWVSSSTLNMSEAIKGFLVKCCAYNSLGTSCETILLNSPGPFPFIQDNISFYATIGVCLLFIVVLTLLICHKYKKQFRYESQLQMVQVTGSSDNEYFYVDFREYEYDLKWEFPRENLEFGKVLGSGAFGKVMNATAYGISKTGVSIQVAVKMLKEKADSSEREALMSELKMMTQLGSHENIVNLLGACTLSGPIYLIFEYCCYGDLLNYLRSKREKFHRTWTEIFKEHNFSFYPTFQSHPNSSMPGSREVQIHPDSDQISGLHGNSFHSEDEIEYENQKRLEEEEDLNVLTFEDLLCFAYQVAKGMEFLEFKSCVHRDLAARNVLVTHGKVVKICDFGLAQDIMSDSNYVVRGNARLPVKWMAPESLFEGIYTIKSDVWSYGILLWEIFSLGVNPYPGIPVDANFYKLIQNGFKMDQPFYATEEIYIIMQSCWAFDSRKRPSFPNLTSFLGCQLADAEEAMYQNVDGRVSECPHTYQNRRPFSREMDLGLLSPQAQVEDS
Assay: DiscoverX KINOMEscan active site-directed competition binding, FLT3 R834Q
Details: Table 13; no ATP
Excerpt: (§1) Kinase binding data were obtained for various exemplary compounds prepared according to Examples 1-8 using the DiscoverX KINOMEscan® active site-directed competition binding site-directed assay protocol described below. […] As a result, the data report thermodynamic interaction affinities (Kd values), rather than IC50 values that are dependent on ATP concentrations. The assay uses a DNA-tagged version of the protein kinase, and an immobilized ligand bound to a solid support. Compounds that directly or indirectly prevent kinase binding to the immobilized ligand reduce the amount of kinase captured on the solid support, which is detected using an ultra-sensitive qPCR method. Affinity constants reported from the assay have been reported to be independent of the immobilized ligand used that is coupled to the solid support (See supplemental information in Fabian, M. A. et. al., (2005) Nat. Biotechnol. 23, 329-336; Wodicka, L. M. et. al., (2010) Chem. Biol. 17, 1241-1249.)
Kinase-tagged T7 phage strains were prepared in an E. coli host derived from the BL21 strain. E. coli were grown to log-phase and infected with T7 phage and incubated with shaking at 32 °C until lysis. The lysates were centrifuged and filtered to remove cell debris. The remaining kinases were produced in HEK-293 cells and subsequently tagged with DNA for qPCR detection. Streptavidin-coated magnetic beads were treated with biotinylated small molecule ligands for 30 minutes at room temperature to generate affinity resins for kinase assays. The liganded beads were blocked with excess biotin and washed with blocking buffer (SeaBlock (Pierce), 1% BSA, 0.05% Tween 20, 1 mM DTT) to remove unbound ligand and to reduce non-specific binding. […] Test compounds were prepared as 111x stocks in 100% DMSO. Kds were determined using an 11-point 3-fold compound dilution series with three DMSO control points. All compounds for Kd measurements are distributed by acoustic transfer (non-contact dispensing) in 100% DMSO. The compounds were then diluted directly into the assays such that the final concentration of DMSO was 0.9%. All reactions were performed in polypropylene 384-well plates. Each was a final volume of 0.02 mL. The assay plates were incubated at room temperature with shaking for 1 hour and the affinity beads were washed with wash buffer (1×PBS, 0.05% Tween 20). The beads were then re-suspended in elution buffer (1×PBS, 0.05% Tween 20, 0.5 μM nonbiotinylated affinity ligand) and incubated at room temperature with shaking for 30 minutes. The kinase concentration in the eluates was measured by qPCR. Binding constants (Kds) were calculated with a standard dose-response curve using the Hill equation. The Hill Slope was set to −1. Curves were fitted using a non-linear least square fit with the Levenberg-Marquardt algorithm.
as §1, with “9-12” for “1-8”
Kinase-tagged T7 phage strains were prepared in an E. coli host derived from the BL21 strain. […]

SMILES | Kd
COc1cn2ncc(-c3nc(N[C@H]4CNCC[C@@H]4F)c(C#N)cc3F)c2nc1C1CC1 [Compound 7, 6-(5-cyclopropyl-6-methoxypyrazolo[1,5-a]pyrimidin-3-yl)-5-fluoro-2-(((3S,4S)-4-fluoropiperidin-3-yl)amino)nicotinonitrile] | < 0.17 nM
COc1cn2ncc(-c3nc(N[C@H]4CNCC[C@@H]4F)c(F)cc3F)c2nc1C(C)(C)O [Compound 13, 2-(3-(3,5-difluoro-6-(((3S,4S)-4-fluoropiperidin-3-yl)amino)pyridin-2-yl)-6-methoxypyrazolo[1,5-a]pyrimidin-5-yl)propan-2-ol] | 3.3 nM
COc1cn2ncc(-c3nc(N[C@H]4CNCC[C@@H]4F)c(C#N)cc3F)c2nc1C(C)(C)O [Compound 10, 5-fluoro-2-(((3S,4S)-4-fluoropiperidin-3-yl)amino)-6-(5-(2-hydroxypropan-2-yl)-6-methoxypyrazolo[1,5-a]pyrimidin-3-yl)nicotinonitrile] | 2.2 nM

Same assay, conditions: Table 19; no ATP

SMILES | Kd
COc1cn2ncc(-c3cncc(N[C@H]4CNCC[C@@H]4F)n3)c2nc1C1CC1 [Compound 12a, 6-(5-cyclopropyl-6-methoxypyrazolo[1,5-a]pyrimidin-3-yl)-N-((3S,4S)-4-fluoropiperidin-3-yl)pyrazin-2-amine] | 0.35 nM
COc1cn2ncc(-c3nc(N[C@@H]4CCCNC4)ncc3F)c2nc1C1CC1 [Compound 14a, (R)-4-(5-cyclopropyl-6-methoxypyrazolo[1,5-a]pyrimidin-3-yl)-5-fluoro-N-(piperidin-3-yl)pyrimidin-2-amine] | < 0.17 nM
COc1cn2ncc(-c3nc(N[C@H]4CNCC[C@@H]4F)ncc3F)c2nc1C(C)(C)O [Compound 6a, 2-(3-(5-fluoro-2-(((3S,4S)-4-fluoropiperidin-3-yl)amino)pyrimidin-4-yl)-6-methoxypyrazolo[1,5-a]pyrimidin-5-yl)propan-2-ol] | 3.8 nM
COc1cn2ncc(-c3ccnc(N[C@H]4CNCC[C@@H]4F)n3)c2nc1C1CC1 [Compound 7a, 4-(5-cyclopropyl-6-methoxypyrazolo[1,5-a]pyrimidin-3-yl)-N-((3S,4S)-4-fluoropiperidin-3-yl)pyrimidin-2-amine] | 0.43 nM
COc1cn2ncc(-c3nc(N[C@H]4CNCC[C@@H]4F)ncc3F)c2nc1C1CC1 [Compound 15a, 4-(5-cyclopropyl-6-methoxypyrazolo[1,5-a]pyrimidin-3-yl)-5-fluoro-N-((3S,4S)-4-fluoropiperidin-3-yl)pyrimidin-2-amine] | < 0.17 nM
